For assay [1], the target named is T1, hM1 (Homo sapiens, UniProt P11229).
T1 sequence (P11229 1-460): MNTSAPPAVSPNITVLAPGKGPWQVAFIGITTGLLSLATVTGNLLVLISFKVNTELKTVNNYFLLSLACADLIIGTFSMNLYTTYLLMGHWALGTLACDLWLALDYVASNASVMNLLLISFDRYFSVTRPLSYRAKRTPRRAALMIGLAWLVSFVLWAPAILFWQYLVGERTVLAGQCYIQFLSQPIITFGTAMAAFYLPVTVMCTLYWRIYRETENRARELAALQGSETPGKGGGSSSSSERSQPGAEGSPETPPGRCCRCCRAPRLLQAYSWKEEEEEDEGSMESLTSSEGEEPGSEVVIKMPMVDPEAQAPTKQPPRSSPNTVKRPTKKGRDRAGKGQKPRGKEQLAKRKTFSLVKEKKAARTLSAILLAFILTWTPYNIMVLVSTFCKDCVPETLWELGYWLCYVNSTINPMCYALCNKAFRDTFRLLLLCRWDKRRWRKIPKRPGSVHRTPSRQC
Format: cell-based. The conditions noted are these: for hM1 antagonist activity in words: SAR discussion of Table 1 analogs; for change in hM1 antagonist potency relative to a comparator compound: fold change in words.

The target of assay [2] is T1, hM1. The assay is described as follows: [3H]NMS radioligand displacement at hM1 under equilibrium conditions. Format: binding.
In another assay the target is T2, M1 (Homo sapiens, UniProt P11229).
T2 sequence (P11229 1-460): T1 sequence (P11229 1-460)
Put plainly: Schild analysis, calcium mobilization in M1-expressing CHO cells. Format: cell-based. Particulars: for Schild regression slope: antagonism of ACh, mean ± S.E.M. of three experiments in triplicate; for mode of antagonism of M1 response to ACh: calcium mobilization assay.

For the molecule `CN1CCN(C(=O)[C@H](Cc2ccccc2)c2ccccc2)CC1` (single isomer, unassigned) [Compound 6], the “hM1 antagonist activity in words” value on hM1 [1] is given as “moderate improvement in potency”. The “displacement of radiolabeled NMS” value on hM1 [2] is “completely displace radiolabeled NMS”. Moreover, on M1, the Schild regression slope was 0.97 ± 0.02 and the “mode of antagonism of M1 response to ACh” value is “competitively antagonizes M1 response to ACh in a concentration-dependent manner”.
As to `CN1CCN(C(=O)[C@@](F)(Cc2ccccc2)c2ccccc2)CC1` (single isomer, unassigned) [Compound 8f], the “selectivity for hM1” value at hM1 [1] (against hM1-5, calcium mobilization assay) is “modest selectivity for hM1”. In addition, the “displacement of radiolabeled NMS” value at hM1 [2] is reported as “completely displace radiolabeled NMS”. On M1, the Schild regression slope is on record as 1.07 ± 0.02 and the “mode of antagonism of M1 response to ACh” value is on record as “competitively antagonizes M1 response to ACh in a concentration-dependent manner”.
`CN1CCN(C(=O)C(Cc2ccccc2)c2ccccc2)CC1` (centres unmarked) [Compound 4]: the “change in hM1 antagonist potency relative to a comparator compound” value at hM1 [1] is “roughly fourfold improvement in antagonist potency”.
On the same count and under the same terms, the same measure for `CCN1CCN(C(=O)C(Cc2ccccc2)c2ccccc2)CC1` (centres unmarked) [Compound 5a]: “sixfold drop in potency”; for `CC(C)N1CCN(C(=O)C(Cc2ccccc2)c2ccccc2)CC1` (centres unmarked) [Compound 5b]: “only a minor potency decrease”.
As for `CC(C)CN1CCN(C(=O)C(Cc2ccccc2)c2ccccc2)CC1` (centres unmarked) [Compound 5c], on hM1 [1], the “hM1 antagonist activity in words” value was “nearly abolished antagonist activity”.
On the same count and under the same terms, in the case of `O=C(C(Cc1ccccc1)c1ccccc1)N1CCNCC1` (centres unmarked) [Compound 5d] it was “loss of activity”.
Take `CCN1CCN(C(=O)C(Cc2ccccc2)c2ccccc2)CC1C` (centres unmarked) [Compound 5f]: the “change in hM1 antagonist potency relative to a comparator compound” value on hM1 [1] was “increase potency roughly sixfold”.
As to `CCN1CCN(C(=O)C(Cc2ccccc2)c2ccccc2)CC1(C)C` (centres unmarked) [Compound 5g], on hM1 [1], the “change in hM1 antagonist potency relative to a comparator compound” value is on record as “increase potency roughly sixfold”.
For `C[N+]1(C)CCN(C(=O)C(Cc2ccccc2)c2ccccc2)CC1` (centres unmarked) [Compound 5h], on hM1 [1], the “hM1 antagonist activity in words” value is “only modest activity”.
On to `CN(C)CCNC(=O)C(Cc1ccccc1)c1ccccc1` (centres unmarked) [Compound 5m], for which the “hM1 antagonist activity in words” value at hM1 [1] is recorded as “large losses in potency”.
The same measure, in the same setting: the same measure for `CN(C)CCN(C)C(=O)C(Cc1ccccc1)c1ccccc1` (centres unmarked) [Compound 5n]: “large losses in potency”.
As to `COCCN1CCN(C(=O)C(Cc2ccccc2)c2ccccc2)CC1` (centres unmarked) [Compound 5r], at hM1 [1], the “hM1 antagonist activity in words” value is given as “significant drop in potency”.
The same measure, in the same setting: in the case of `O=C(C(Cc1ccccc1)c1ccccc1)N1CCN(c2ccncc2)CC1` (centres unmarked) [Compound 5s] it was “minimal antagonist activity”.
On the same count and under the same terms, the same measure for `O=C(C(Cc1ccccc1)c1ccccc1)N1CCN(CC(F)(F)F)CC1` (centres unmarked) [Compound 5t]: “complete loss of activity”.
As to `CN1CCCN(C(=O)C(Cc2ccccc2)c2ccccc2)CC1` (centres unmarked) [Compound 5u], on hM1 [1], the “change in hM1 antagonist potency relative to a comparator compound” value is on record as “only a twofold decrease in potency”.
On the same count and under the same terms, in the case of `CCN1CCCN(C(=O)C(Cc2ccccc2)c2ccccc2)CC1` (centres unmarked) [Compound 5v] it was “roughly equipotent with 4”.
Consider `CC(C)N1CCCN(C(=O)C(Cc2ccccc2)c2ccccc2)CC1` (centres unmarked) [Compound 5w], for which the “hM1 antagonist activity in words” value on hM1 [1] is “retained moderate potency”.
Regarding `O=C(C(Cc1ccccc1)c1ccccc1)N1CC[C@H]2CCCN2CC1` (some centres unmarked) [Compound 5y], the “hM1 antagonist activity in words” value at hM1 [1] was “retained moderate potency”.
Still for that read-out and setting: in the case of `O=C(C(Cc1ccccc1)c1ccccc1)N1CCCNCC1` (centres unmarked) [Compound 5z] it was “nearly complete loss of activity”.

The values above are taken from PMC3897205 (Bioorganic & medicinal chemistry letters, 2012).
